Experimental data reported in US12215132B2, “Methods, compositions and uses thereof for reversing sarcopenia” (The Trustees of Columbia University in the City of New York, priority 2020, dated 2025).
“Also recorded” adds a separate entry of the source. Read-outs that look alike come from different tables or passages of the source.

Columns and labels:
[1] = tested on: dexamethasone-treated mice
Procedure: It was also further examined whether an osteocalcin treatment might preserve muscle function and/or muscle mass in a clinically relevant mouse model of sarcopenia.
In another recognized model of sarcopenia, the efficacy of osteocalcin has been tested. Specifically, dexamethasone delivered by pumps ([…]) for 28 days has been used in mice. Another group of mice received Dexamethasone plus osteocalcin also delivered by pumps.
FIG. 9A and FIG. 9B show exemplary graphs pf exemplary modeling sarcopenia in mice.

Liver Factor 1 = Liver Factor 1 production during exercise; assay type: in vivo
Source text: OCN signaling in the liver is required for exercise capacity (see FIG. 6). OCN enhances Liver Factor 1 production during exercise (see FIG. 7). Liver Factor 1 mediates OCN regulation of exercise capacity (see FIG. 8).

animal models = details: in vivo
[2] = tested on: young and 12 to 15 month-old mice; details: data of WO 2016/081728, cited from earlier work
[3] = one-month chronic infusion of dexamethasone, mice
[4] = dexamethasone-treated mice, co-treatment with test substance

Compound: C[C@@H]1C[C@H]2[C@@H]3CCC4=CC(=O)C=C[C@]4(C)[C@@]3(F)[C@@H](O)C[C@]2(C)[C@@]1(O)C(=O)CO [dexamethasone, reference compound]
- ability to run on a treadmill ([1]; mouse, in vivo): decreased
- muscle mass ([1]; mouse, in vivo): decreased
- decrease of gastrocnemius muscle mass [1, 3]: 30%
- reduction of running capacity [1, 3]: 50%

Compound: N#Cc1ccc(N2CCC[C@@H]2[C@@H](O)C(F)(F)F)cc1C(F)(F)F [VK5211, reference compound]
- muscle mass [1, 4]: fully restored muscle mass to normal levels
- running capacity / exercise capacity [1, 4]: modest effect

Compound: osteocalcin: Osteocalcin, a bone-derived hormone; small (46-50 amino acid residues) bone specific protein (YLYQWLGAPVPYPDPLEPRREVCELNPDCDELADHIGFQEAYRR; listed as Homo sapiens)
- IL-6 ([1]; Dex-induced sarcopenia): favors IL-6
- muscle function versus muscle mass; comparison with VK5211 ([1]; Dex-induced sarcopenia): outperforms
- muscle function versus muscle mass; comparison with VK5211 ([1]; Dex-induced sarcopenia, listed as OCN): mainly targets muscle function
- muscle mass ([1]; dexamethasone-treated mice, co-treatment with test substance, listed as OCN): marginal effect
- off-target effects ([1]; mouse, in vivo): no overt off-target effects
- deleterious effect of dexamethasone on muscle function ([1]; osteocalcin given to mice that had already received dexamethasone for two weeks): partially revert
- Liver Factor 1 production (Liver Factor 1): enhances
- negative side-effects (animal models): safe with no recorded negative side-effects
- exercise capacity ([2]; 12 to 15 month-old mice): confers to 15 months-old mice exercise capacity of 3 month-old mice; also recorded: confers to 12 to 15 month-old mice the exercise capacity of 3 month-old mice
- exercise capacity ([2]; young mice): increases the exercise capacity
